According to paper PMC11167311, “Revolutionizing GPCR–ligand predictions: DeepGPCR with experimental validation for high-precision drug discovery” (Briefings in Bioinformatics, 2024):
Read-outs that look alike come from different tables or passages of the source.

Experiments:
hGPR35 [1] = biological target: T1, hGPR35 (Homo sapiens, UniProt Q9HC97); experiment: DMR agonism assay in CHO-GPR35 cells; type: cell-based
T1 construct: expressed in transfected cells
Procedure: (§1) CHO-GPR35 cells were the same as our previously reported. CHO-GPR35 cells were cultured in an F12 medium supplemented with 10% FBS, penicillin (50 μg/ml), streptomycin (100 μg/ml) and zeocin (200 μg/ml) at 37°C under 5% CO2. HEK293 cells were purchased from the National Collection of Authenticated Cell Cultures (Shanghai, China) and cultured in DMEM medium supplemented with 10% FBS, penicillin (50 μg/ml) and streptomycin (100 μg/ml) and at 37°C under 5% CO2.
(§2) When the cells approached 90% confluence, they were seeded in 384-well biosensor plates with a density of 1.5 × 10^4 CHO-GPR35 or 2.5 × 10^4 HEK293-GLP-1R cells/well and cultured for 24 h. The culture medium in the 384-well biosensor plates was replaced with 30 μl of Hank’s balanced salt solution (1 × HBSS) and then further incubated inside the system for 1 h before measurement. For the dynamic mass redistribution (DMR) agonism assay, a 2-min baseline was first established, followed by adding compounds using the multi-channel pipette, and the compound-triggered DMR responses were recorded for approximately 1 h. […] For DMR antagonism assay, cells were initially treated with either an antagonist or compound for 1 h in GPR35 and 90 min in GLP-1R assays, respectively. […] All DMR responses were background-corrected.

hGPR35 [2] = biological target: T1, hGPR35; experiment: DMR antagonism (desensitization) assay in CHO-GPR35 cells, zaprinast challenge; type: cell-based; conditions: for GPR35 receptor activity (result in words): CHO-GPR35 cells, desensitization when stimulated by agonist zaprinast
Procedure: as §1, §2

T1 sequence (Q9HC97 whole entry): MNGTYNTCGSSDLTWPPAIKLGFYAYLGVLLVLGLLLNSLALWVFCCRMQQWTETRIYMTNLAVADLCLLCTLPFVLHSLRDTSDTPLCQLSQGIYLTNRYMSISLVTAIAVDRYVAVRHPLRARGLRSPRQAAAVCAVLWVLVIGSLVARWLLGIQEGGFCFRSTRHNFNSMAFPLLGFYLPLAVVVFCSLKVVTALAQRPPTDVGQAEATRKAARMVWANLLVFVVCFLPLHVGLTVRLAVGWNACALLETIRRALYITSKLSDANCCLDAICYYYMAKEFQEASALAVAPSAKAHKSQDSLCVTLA

Row | SMILES | compound-triggered DMR signal in CHO-GPR35 cells (hGPR35 [1]) | GPR35 receptor activity (result in words) (hGPR35 [2]) | IC50 (hGPR35 [2]; read-out: IC50 (hGPR35, DMR desensitization)) | IC50 (hGPR35 [2])
1 | CC(C)NC(=O)c1cccc(-c2noc(CCc3c[nH]c4ccccc34)n2)c1 [F545-1970] | do not show a significant increase in DMR signal | GPR35 receptor antagonistic activity, with relatively weak activity | 38.8 µM | 
2 | COCC12CCN(c3ccc(C#N)c(C(F)(F)F)c3)CC1CN(C(=O)CCc1ccccc1)C2 (stereo not drawn) [S948-0241] | do not show a significant increase in DMR signal | GPR35 receptor antagonistic activity, with relatively weak activity |  | 67.9 µM
